Test results as given in patent US10966959B2, “Use of a rotifer-derived compound and its analogs for preventing schistosomiasis” (Wisconsin Alumni Research Foundation, priority 2018, dated 2021).
“Also recorded” adds a separate entry of the source.

Key:
S. mansoni cercariae [1] = test: Cercarial paralysis assay; format: cell-based
Description: Infected B. glabrata snails provided by Biomedical Research Institute (BRI, Rockville, Md.) were maintained in artificial pond water and fed Layer Crumbles (chicken feed) (Rural King, Mattoon, Ill.). To obtain S. mansoni cercariae, B. glabrata snails were exposed to light at 26° C. for 1-2 hrs. Artificial pond water containing cercariae was passed through 100 μm cell strainer (Falcon, Corning Inc., Corning, N.Y.) to remove snail food and feces. Cercariae were then collected using custom-made 20 μm cell strainers.
Cercarial Paralysis Assay
To capture the whole field while avoiding excess reflected light in a well, we used the lid of 96-well plate (Costar, Corning Inc., Corning, N.Y.). 40 μL of artificial pond water containing ˜50 cercariae were added to each shallow well on the lid. 10 μL of SPF (dissolved in APW) was then added to reach the final concentration indicated. Using a high-speed camera (Olympus i-SPEED TR), attached to a stereomicroscope (Leica MZ125, Leica Microsystems, Wetzlar, Germany), we recorded cercariae movement at 20-60 fps at 1.25× magnification just prior to addition of test compounds until 3-4 minutes after treatment started. Raw movies were converted to .avi files using i-SPEED Viewer and compressed into JPEG format using ImageJ (addition of compound is considered time 0). We then counted the numbers of free swimming/paralyzed cercariae every 5 seconds for 1 minute and every 30 seconds thereafter for 3 minutes. The number of dead cercariae (those that never swim before and after SPF treatment) were subtracted from data. Experiments were performed in triplicate.
To determine if cercariae react to SPF or other analogs in a dose-dependent manner, serial dilutions of SPF were made in APW. To quantify the paralysis effect of SPF, the movement of the cercariae was recorded, as well as the number of free-swimming and non-swimming cercariae. In the absence of SPF, over 82% of cercariae were free-swimming over three minutes (FIG. 1(A)). In the presence of 2.5 nM SPF, the percentage of free-swimming cercariae dropped to 67% at three minutes post drug treatment. As the concentration of SPF increased, the rate of paralysis increased, and more cercariae were paralyzed at the end of the treatment.

S. mansoni cercariae [2] = test: Mouse infection experiment (mouse tail exposure to drug-treated cercariae); format: in vivo; conditions: for liver granulomas / schistosome eggs in histological liver sections / adult worms recovered from infected mice: six weeks post infection
Description: Mouse Infection Experiment
Mouse infections were performed by exposing mouse tails to S. mansoni cercariae according to standard protocol from BRI with slight modifications (see Lewis et al., Curr. Protoc. Immunol., 2001, Chapter 19). Briefly, we secured mice in rodent restrainers (Thomas Scientific, Cat #551-BSRR) and put them vertically on top of a rack with grids. We pipetted 100 μL of each drug in proper concentration into a skinny glass tube (Fisher Scientific, Cat #14-958A) inside a 12×75 mm holding glass tube (VWR, Cat #47729-570). 300 μL of APW containing ˜200 cercariae were pipetted into each skinny tube and incubated for 10 mins before we inserted mouse tail. Mouse tails were wiped with APW-moistened Kimwipes, inserted into the skinny tube, and exposed to cercariae for 30 mins. We sacrificed and perfused these mice six week-post infection. For each drug, we initially used three mice for controls (APW only) and three mice for each concentration tested except for 25 nM Ht-13-A and Ht-13-A-pr. We then repeated the experiments again with three mice for each condition. In addition, we included six mice for 25 nM Ht-13-A and Ht-13-A-pr so that we had six biological replicates total for each condition.
Adult worms were recovered by hepatic portal vein perfusion and briefly incubated in 2.5% Tricaine (Sigma) to separate males and females. We counted total numbers of adult worms under a stereomicroscope (Leica MZ75, Leica Microsystems). Livers from infected mice were fixed in 4% formaldehyde in PBS overnight. Largest liver lobes (left lobe) were submitted to University of Wisconsin-Madison Histology Core Facility for sectioning and Hematoxylin and Eosin staining. Each left lobe was evenly cut into 4-6 pieces and paraffin embedded on a large cassette. One slide (4-6 liver sections) for each liver was used for histological examination, which provided a representative view throughout the whole liver lobe. We took a tiled image of the whole slide using a Zeiss Axio Zoom microscope and used ImageJ (National Institutes of Health, Bethesda, Md.) to determine the area of each section. Total numbers of eggs in each section were counted and normalized to the area.
To determine if SPF-induced paralysis could prevent infection, ˜200 cercariae were treated with different concentrations of SPF (25 nM, 250 nM, and 2.5 μM) for 10 min followed by a 30 min mouse tail infection (N=6 for each condition). Six-weeks post infection, the mice were euthanized, hepatic portal vein perfusion was performed, recovered schistosomes were counted, and mouse liver pathology was examined. In the control group, 83 adult worms were recovered on average (FIG. 2(A)). Livers from these mice appeared dark in color and had extensive granuloma formation (FIG. 2(A)). […] Without wishing to be bound by theory, it is possible that mechanical and/or chemical stimuli from mouse tails may overcome the SPF-induced paralytic effects at low SPF concentrations.

With `COc1ccc2[nH]cc3c2c1OC1C(C)CN(C)C1C3` (centres unmarked) [SPF, 5-methoxy-7,9-dimethyl-6a,7,8,9,9a,10-hexahydro-2H-pyrrolo[2′,3′:6,7]oxepino[4,3,2-cd]indole] the “percentage of free-swimming cercariae” value (S. mansoni cercariae [1]; 2.5 nM, three minutes post drug treatment) was 67%, the “paralytic effect on cercariae” value (S. mansoni cercariae [1]; 25 nM, in vitro) was “could paralyze most cercariae” and the “paralytic effect on cercariae” value (S. mansoni cercariae [1]; 250 nM) was “maximum paralytic effect; also recorded: full paralysis”. For the same molecule, the “time until majority of cercariae paralyzed” value (S. mansoni cercariae [1]; 250 nM) was at most 30 s, the “paralytic effect on cercariae” value (S. mansoni cercariae [1]; 2.5 μM) was “maximum paralytic effect; also recorded: full paralysis” and the “time until majority of cercariae paralyzed” value (S. mansoni cercariae [1]; 2.5 μM) was at most 30 s. For the same molecule, the “effect on mouse infection” value (S. mansoni cercariae [2]; 25 nM) was “not as severe”, the “blocking / inhibition of infection” value (S. mansoni cercariae [2]; 250 nM) was “complete inhibition of infection” and the liver granulomas (S. mansoni cercariae [2]; 250 nM) was “no granulomas were observed”. The “schistosome eggs in histological liver sections” value (S. mansoni cercariae [2]; 250 nM) was “clear of schistosome eggs”, the “blocking / inhibition of infection” value (S. mansoni cercariae [2]; 2.5 μM) was “complete inhibition of infection” and the liver granulomas (S. mansoni cercariae [2]; 2.5 μM) was “no granulomas were observed”. For the same molecule, the “schistosome eggs in histological liver sections” value (S. mansoni cercariae [2]; 2.5 μM) was “clear of schistosome eggs”, the “adult worms recovered from infected mice” value (S. mansoni cercariae [2]; cercariae treated with 250 nM for 10 min) was “no adult worms could be recovered” and the “adult worms recovered from infected mice” value (S. mansoni cercariae [2]; cercariae treated with 2.5 μM for 10 min) was “no adult worms could be recovered”. For the same molecule, the “liver appearance (post perfusion)” value (S. mansoni cercariae [2]; higher concentrations of drug treatment) was “normal morphologies with few or no granulomas” and the “liver appearance (post perfusion)” value (S. mansoni cercariae [2]; lower concentrations of drug) was “darker in color and contained more granulomas”.
